From PubChem BioAssay (NCI)
“And” between values parts separate entries of the source, which are not always exact repeats. Identical values can stand only once.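 Each compound was tested at five concentrations against cells in 96-well plates for 48 hours. The concentration for 50% growth inhibition is given as GI50. TGI is the concentration that stops growth completely.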

Tests used:
Test in all cases: inhibition of tumour cell growth, NCI panel, 48 h
[1] = system: ACHN renal
[2] = system: RXF 393 renal
[3] = system: TK-10 renal
[4] = system: M14 melanoma
[5] = system: SNB-19 CNS
[6] = system: CCRF-CEM leukemia
[7] = system: HL-60(TB) leukemia
[8] = system: MOLT-4 leukemia
[9] = system: SK-MEL-5 melanoma
[10] = system: PC-3 prostate

| Compound | GI50 [1] | TGI [1] | TGI [2] | GI50 [3] | TGI [3] | TGI [4] | GI50 [5] | TGI [5] | GI50 [6] | TGI [6] | TGI [7] | GI50 [8] | TGI [8] | GI50 [9] | TGI [9] | GI50 [10] | TGI [10] | GI50 [2] | GI50 [4] | GI50 [7] |
| --- | --- | --- | --- | --- | --- | --- | --- | --- | --- | --- | --- | --- | --- | --- | --- | --- | --- | --- | --- | --- |
| CCCCCCCCCCCC/C=C\CC[C@@H](O)[C@H](O)CC[C@H](O)[C@@H]1CC[C@@H](CCCCCCCC2=C[C@H](C)OC2=O)O1 | 4.35 µM | 4.71 µM and 26.3 µM | 37.8 µM | 10 µM | 28.6 µM | 46.8 µM | 9.85 µM | 29.3 µM | 6.82 µM | > 100 µM | 6.56 µM | 1.72 µM | 4.88 µM | 0.0198 µM | 4.11 µM and 4.85 µM | 2.22 µM | 16.5 µM | – | – | – |
| O=C1CCC(c2ccccc2)=NN1c1nc2ccccc2s1 | – | > 100 µM | 34.1 µM | – | > 88 µM | > 100 µM | – | > 100 µM | – | 71.8 µM | 99.2 µM | – | > 94.4 µM | – | 53.1 µM | – | 69.2 µM | – | – | – |
| Cc1sc(/N=C/C2=C(O)CC(C)(C)CC2=O)nc1-c1ccccc1 | – | > 100 µM | > 100 µM | – | > 100 µM | > 100 µM | – | > 100 µM | – | > 100 µM | 5.93 µM | – | > 100 µM | – | > 100 µM | – | > 100 µM | – | – | – |
| CCn1cc(C(=O)O)c(=O)c2cc(F)c(N3CCN(S(=O)(=O)c4ccc(Cl)cc4Cl)CC3)cc21 | 2.62 µM | 7.68 µM | 5.68 µM | 4.02 µM | 23 µM | 10.8 µM | 3.07 µM | 20.6 µM | 3.03 µM | > 100 µM | 5.15 µM | 3.55 µM | > 100 µM | 1.87 µM | 3.93 µM | 2.43 µM | 10.7 µM | 2.08 µM | 3.24 µM | 2.22 µM |
| CC(=O)ON(OCc1ccc2ccccc2c1)C(C)=O | > 100 µM | > 100 µM | > 100 µM | > 100 µM | > 100 µM | > 100 µM | > 100 µM | > 100 µM | > 100 µM | > 100 µM | > 100 µM | > 100 µM | > 100 µM | 94.7 µM | > 100 µM | > 100 µM | > 100 µM | > 100 µM | > 100 µM | > 100 µM |
| CCCCNc1ncnc2c1cnn2-c1ccccc1 | 9.6 µM | > 100 µM | 8.26 µM | 5.35 µM | > 57.9 µM | > 45.8 µM | 8.69 µM | > 100 µM | 5.24 µM | > 100 µM | 53 µM | 3.75 µM | > 100 µM | 1.19 µM | 11.1 µM | 2.38 µM | 56.9 µM | 1.97 µM | 1.42 µM | 2.35 µM |
| Clc1ccc2c(NCCNc3nc(N4CCOCC4)nc4ccccc34)ccnc2c1 | 1.75 µM | 3.49 µM | 3.63 µM | 1.83 µM | 3.39 µM | 3.89 µM | 2.59 µM | 8.78 µM | 1.67 µM | 11.7 µM | 3.12 µM | 3.33 µM | 14.1 µM | 1.75 µM | 3.15 µM | 4.5 µM | 17.1 µM | 1.61 µM | 1.94 µM | 1.09 µM |
